The source of these data is PubChem BioAssay AID463199 (Broad Institute, 2010).

Each structure is given as a SMILES string. Activity calls are given as the source filed them.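 The calls were made as follows: active = AC50, the dose giving half-maximal effect, exceeds a fixed cutoff for a compound that rescues yeast growth under heat; inactive = the rest, inconclusive results apart.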 A value given as a limit tells only on which side of the number the result lay.

This experiment deals with S. cerevisiae Burl-1 ts mutant growth, BacTiter-Glo, 38.5C 24 h. Briefly: restored growth of temperature-sensitive Burl-1 yeast – whole organism, S. cerevisiae, Burl-1 ts mutant, luminescence, counter-screen for SUMOylation pathway inhibitor project, dose response (AID 463199).
As for `O=C(/C(=N\Nc1ccc(Br)cc1)Sc1nnnn1-c1ccccc1)c1ccccc1`, the AC50 – broadly, the midpoint of the concentration-response curve, whichever way the signal moves – was > 42 µM (inactive). For `CCOc1ccccc1/C=N\Nc1cnn(Cc2ccccc2)c(=O)c1Cl`, the AC50 is > 42 µM (inactive). With `CC1(C)C(C=C(Cl)Cl)C1C(=O)OCc1cccc(Oc2ccccc2)c1` (stereo not drawn), the AC50 is > 42 µM (inactive). With `CCn1c(C)c(C(C)=O)c(N2CCN(c3ccc(F)cc3)CC2)nc1=S`, the AC50 is > 42 µM (inactive). On to `O=C(COc1ccccc1)NCCS(=O)(=O)N1CCN(c2ccccc2)CC1`, for which the AC50 was > 42 µM (inactive). Under `CCc1ccc(-n2c(Cc3ccccc3)n[nH]c2=S)cc1` stands > 42 µM (inactive). On to `CCOC(=O)N1CCC(Nc2nc3ccccc3n3nnnc23)CC1`, for which the AC50 is > 42 µM (inactive). As for `Cc1ccc(C(C(=O)Nc2ccc3c(c2)OCO3)N(C)C(=O)Cc2c[nH]c3ccccc23)cc1` (stereo not drawn), the AC50 is > 42 µM (inactive). Consider `CCOc1ccc(S(=O)(=O)N2CCN(C(=O)CN3C(=O)NC4(CCCC4)C3=O)CC2)cc1`, for which the AC50 is > 42 µM (inactive). As to `Cc1ccc(SCC(=O)O/N=C(\N)c2cccc([N+](=O)[O-])c2)cc1`, the AC50 was > 42 µM (inactive). Take `COc1ccc(N2CCN(C(=O)Cn3nnc(-c4ccc(OC)c(OC)c4)n3)CC2)cc1`: the AC50 is > 42 µM (inactive). With `COc1cc(C(C2=C(O)CC(C)(C)CC2=O)C2C(=O)CC(C)(C)CC2=O)cc(OC)c1OC` (stereo not drawn), the AC50 is > 42 µM (inactive).

Take `CC(=O)N1CCC2(CC1)CC(=O)c1cc(OCC(=O)N3CCCC3)ccc1O2`: the AC50 is > 42 µM (inactive). For `CCN(CC)CCCn1c(=S)[nH]c2ccc(Cl)cc2c1=O` the value was 38.6 µM; for `CCN(Cc1ccccc1)Cc1ccc(OCc2ccccc2)c(OC)c1`, > 42 µM (inactive). Take `O=S1(=O)CC(N2CCCCC2)C(N2CCCCC2)C1` (stereo not drawn): the AC50 was > 42 µM (inactive). Take `O=C(NNS(=O)(=O)c1c(F)cc(F)c(Cl)c1F)C12CC3CC(CC(C3)C1)C2`: the AC50 is > 42 µM (inactive). Under `CC(C)(CNC(=O)c1cccs1)CNC(=O)c1cccs1` stands > 42 µM (inactive); under `O=C1c2cccc3c(N4CCCCC4)ccc(c23)C(=O)N1CCO`, > 42 µM (inactive); under `CC1CCCCC1N=CC1=C(O)CC(C)(C)CC1=O` (stereo not drawn), > 42 µM (inactive).

`O=S1(=O)C=C(Sc2nnc(-c3ccccc3)o2)c2ccccc21`: the AC50 is 8.23 µM. Turning to `Cc1ccc(NC(=O)COc2ccccc2C(=O)NCCN(C)C)cc1`, the AC50 was > 42 µM (inactive). For `COc1ccc(/C=N/NC(=O)c2nnn(-c3nonc3N)c2-c2cccs2)cc1OC` the value was > 42 µM (inactive); for `CCOC(=O)c1[nH]c2ccc(F)cc2c1NC(=O)CCN1CCOCC1`, > 42 µM (inactive). `O=S1(=O)NC(c2ccccc2)CC(CC2CCCCC2)O1` (stereo not drawn): the AC50 is > 42 µM (inactive). As to `O=C(COc1cccc2cccnc12)N1CCc2ccccc21`, the AC50 was > 42 µM (inactive). For the compound `Cc1ccc(CNC(=O)CCn2cc(-c3ccc(C)cc3)nc2CCN)cc1`, the AC50 is > 42 µM (inactive).

For the compound `O=C(NCC(c1cccs1)N1CCOCC1)c1ccccc1NS(=O)(=O)c1cc([N+](=O)[O-])ccc1Cl` (stereo not drawn), the AC50 is > 42 µM (inactive). `CC(=O)Nc1ccc(S(=O)(=O)Nc2ccc(S(=O)(=O)Nc3ncccn3)cc2)cc1`: the AC50 is > 42 µM (inactive). On to `Nc1ccc(N2CCN(c3ccc(F)cc3)CC2)cc1`, for which the AC50 is > 42 µM (inactive). As for `CCOC(=O)c1ccc(NC(=O)NCc2ccncc2)cc1`, the AC50 was > 42 µM (inactive). With `COc1ccc(/C=N\Nc2ccc([N+](=O)[O-])cc2)c(C(=O)O)c1OC`, the AC50 was > 42 µM (inactive). For `O=C(c1ccccc1)C(CN1CCCC1)c1ccccc1` (stereo not drawn) the value was > 42 µM (inactive); for `c1ccc2c(C[C@@H]3CNCCN3CCCCC3CCCCC3)cccc2c1`, > 42 µM (inactive); for `O=C(Cn1cnc2ccccc2c1=O)c1ccc(OC(F)F)cc1`, > 42 µM (inactive). For the compound `O=C(c1ccc(F)cc1)C(CN1CCOCC1)c1ccccc1` (stereo not drawn), the AC50 was > 42 µM (inactive).

As for `COC(=O)c1sc(NC(=O)c2ccc(Cn3cc(Cl)cn3)o2)c(C#N)c1C`, the AC50 was > 42 µM (inactive).

For `O=C(O)C1CCCCC1C(=O)Nc1ccc(S(=O)(=O)N2CCCC2)cc1` (stereo not drawn), the AC50 is > 42 µM (inactive).

As for `COc1cc(C)c(Cl)c(C)c1S(=O)(=O)NCc1ccc2c(c1)OCO2`, the AC50 is > 42 µM (inactive).

With `CCOc1ccc(C(C(=O)NC2CCCC2)N(C(=O)c2snc(C(N)=O)c2N)C2CCCC2)cc1` (stereo not drawn), the AC50 is > 42 µM (inactive). Consider `CC1=CC(=O)C=CC1(C)C(Cl)(Cl)Cl` (stereo not drawn), for which the AC50 was > 42 µM (inactive). As for `Cc1ccc(S(=O)(=O)N2CCN(C(=O)CSc3nc(N)cc(=O)[nH]3)CC2)c(C)c1`, the AC50 was > 42 µM (inactive). As to `CCCC(O)(c1ccc(Br)cc1)C(CN1CCOCC1)c1ccc(Cl)cc1` (stereo not drawn), the AC50 is > 42 µM (inactive). Regarding `NC1=NC2(CCCC2)N=C(Nc2ccccc2)N1`, the AC50 was > 42 µM (inactive).

On to `O=C(Cn1sc2ccccc2c1=O)NC12CC3CC(CC(C3)C1)C2`, for which the AC50 is > 42 µM (inactive). For `CCc1ccc2c(c1)C(c1ccc([N+](=O)[O-])cc1)=NNC(c1ccc(C)cc1)=N2` the value was > 42 µM (inactive); for `COCCN1C=C(C(=O)OC)C(c2cc3c(cc2Br)OCO3)C(C(=O)OC)=C1`, > 42 µM (inactive).

Regarding `O=C(Nc1ccc2[nH]c(=O)[nH]c2c1)c1c(F)c(F)c(F)c(F)c1F`, the AC50 is 25.8 µM. `CCC(=O)Nc1nc(CC(=O)Nc2ccccc2OC)cs1`: the AC50 is > 42 µM (inactive). For `CCOc1ccc(CCN2CN(C3CCCCC3)CNC2=S)cc1OCC` the value was > 42 µM (inactive); for `O=C1CC(=O)C(n2cncn2)C(c2ccc(Cl)cc2Cl)C1` (stereo not drawn), > 42 µM (inactive). As to `Clc1ccc(CNCc2cccs2)cc1Cl`, the AC50 is > 42 µM (inactive).

As for `CSc1ccccc1-n1nnnc1SCC(=O)Nc1ccccc1C`, the AC50 is > 42 µM (inactive). For `COc1cccc(N=Nc2c(=O)[nH]n3c(=O)cc(C)[nH]c23)c1`, the AC50 is > 42 µM (inactive).

`Cc1cc([N+](=O)[O-])ccc1NC(=O)CSc1nccc(=O)[nH]1`: the AC50 is > 42 µM (inactive). In the case of `CC(C)c1cccc(OCCCCN(C)C)c1`, the AC50 is > 42 µM (inactive). Consider `Cc1ccc(C(=O)N/C(=C\c2cccs2)C(=O)NCc2ccncc2)cc1`, for which the AC50 is > 42 µM (inactive). Under `O=C(Nc1nnc(-c2ccco2)o1)c1ccc(S(=O)(=O)N2CCCC2)cc1` stands > 42 µM (inactive).

As for `Cc1cccc(C)c1NS(=O)(=O)c1ccc(OCCNS(C)(=O)=O)cc1`, the AC50 is > 42 µM (inactive).

As to `COc1cccc(C2CC(c3cccc(NS(C)(=O)=O)c3)=NN2C(=O)c2ccccc2)c1OC` (stereo not drawn), the AC50 was > 42 µM (inactive). For the compound `O=C(c1cc(Cl)c(=O)n(Cc2ccc(Cl)cc2)c1)N1CCOCC1`, the AC50 was > 42 µM (inactive).

On to `COc1ccc(C(=O)N/C(=C\c2cc(OC)c(OC)cc2[N+](=O)[O-])C(=O)NCCO)cc1`, for which the AC50 is > 42 µM (inactive).

On to `CCOC(=O)c1cc([N+](=O)[O-])c([N+](=O)[O-])cc1NC(C)=O`, for which the AC50 was > 42 µM (inactive). Under `Cc1ccc(C2=NN(CC(=O)NCc3cccs3)C(=O)CC2)cc1` stands > 42 µM (inactive).

On to `O=C(c1ccncc1)N(Cc1ccccc1)Cc1nc2ccccc2c(=O)[nH]1`, for which the AC50 was > 42 µM (inactive). As to `C=C(Cl)COC(=O)C1C2C=CC(C2)C1C(=O)O` (stereo not drawn), the AC50 was > 42 µM (inactive). On to `Cc1c(Cl)cccc1NC(=O)Cn1c(CCC(=O)O)ccc1-c1ccccc1`, for which the AC50 was > 42 µM (inactive). Regarding `O=C1CCCN1CCC1CCN(C2CC(=O)N(c3ccc(Cl)cc3)C2=O)CC1` (stereo not drawn), the AC50 was > 42 µM (inactive). Turning to `Oc1c(Cl)cc(Cl)cc1/C=N/c1nc(-c2ccc(Cl)cc2)cs1`, the AC50 is > 42 µM (inactive). Regarding `Cc1ccc(N2C(=O)C3N=NN(CC(=O)N4N=C(c5cccc6ccccc56)CC4c4ccccc4)C3C2=O)cc1` (stereo not drawn), the AC50 is > 21 µM (inactive). Take `COc1ccc(-c2[nH]nc3c2C(c2ccncc2)C(C#N)=C(N)O3)cc1` (stereo not drawn): the AC50 is > 42 µM (inactive). Under `O=C1OC(Cc2ccccn2)C(O)=C1C1=NCCCN1` (stereo not drawn) stands > 42 µM (inactive). As for `Nc1cc(Cl)ccc1N1CCOCC1`, the AC50 is > 42 µM (inactive).

`CC(C)c1nc2n[nH]c(N)c2c2c1CCC2`: the AC50 was > 42 µM (inactive). For `S=C(c1ccc(N2CCOCC2)cc1)N1CCCCC1`, the AC50 is > 42 µM (inactive). As for `CNC(=O)COC(=O)c1cc(-c2ccco2)nc2ccccc12`, the AC50 was > 42 µM (inactive). As to `CCCNC(=O)c1cc2c(C(F)(F)F)nn(C)c2s1`, the AC50 is > 42 µM (inactive). Regarding `O=C(CCSc1nnc(-c2ccncc2)o1)Nc1ccc(Cl)cc1`, the AC50 is > 42 µM (inactive). For the compound `COc1ccccc1CNc1nc(SC)ncc1CO`, the AC50 is > 42 µM (inactive). As to `CC(C)c1ccc(NC(=O)COc2nnc(-c3cccs3)c(-c3cccs3)n2)cc1`, the AC50 was > 42 µM (inactive).

Regarding `COc1ccc(NC2=C(C)C(=O)CC2)cc1`, the AC50 is > 42 µM (inactive). Consider `O=C1c2nccnc2C(=O)N1c1ccc(C(F)(F)F)cc1`, for which the AC50 is > 42 µM (inactive). Under `Cc1ccc(N/C=C(\C#N)c2ccc(OCCCF)cc2)cc1` stands > 42 µM (inactive); under `C=CCn1cc(C(C)=O)c(=O)[nH]c1=O`, > 42 µM (inactive); under `O=C(COC(=O)C1CC(=O)N(Cc2ccccc2)C1)Nc1ccccc1F` (stereo not drawn), > 21 µM (inactive). In the case of `CCc1ccc(N2C(=O)CC(N3CCC(C(=O)OC)CC3)C2=O)cc1` (stereo not drawn), the AC50 is > 42 µM (inactive).

For `CN(C)S(=O)(=O)c1ccc(Cl)c(NC(=O)CN2C(=O)NC(C)(C3CC3)C2=O)c1` (stereo not drawn), the AC50 is > 42 µM (inactive). Under `NNC(=O)c1[nH]c2ccccc2c1-c1ccccc1` stands > 42 µM (inactive).
